Reference: ChEMBL document CHEMBL5053499, “Indole Alkaloids from a Soil-Derived Clonostachys rosea” (J Nat Prod, 2021)
≈ marks a conversion by molar mass, not a printed value. Calls of active or inactive are those of the source. No cut-off for these calls is given here.

Assays:
[1] = system: Pseudomonas syringae pv. actinidiae; test: Antimicrobial activity against Pseudomonas syringae pv. actinidiae assessed as reduction in bacterial growth measured at 100 ug/ml after 48 hrs by double dilution method; type: functional; conditions: dose 100.0 µg/ml
Ralstonia solanacearum = test: Antimicrobial activity against Ralstonia solanacearum assessed as reduction in bacterial growth at 100 ug/ml measured after 48 hrs by double dilution method; type: functional, organism-based; conditions: dose 100.0 µg/ml
Bacillus subtilis = test: Antimicrobial activity against Bacillus subtilis assessed as reduction in bacterial growth at 100 ug/ml measured after 48 hrs by double dilution method; type: functional; conditions: for Activity: dose 100.0 µg/ml
Escherichia coli = test: Antimicrobial activity against Escherichia coli assessed as reduction in bacterial growth at 100 ug/ml measured after 48 hrs by double dilution method; type: functional, organism-based; conditions: dose 100.0 µg/ml
Pseudomonas sp. [2] = test: Antimicrobial activity against Pseudomonas sp. assessed as reduction in bacterial growth at 100 ug/ml measured after 48 hrs by double dilution method; type: functional, organism-based; conditions: dose 100.0 µg/ml
HeLa = test: Cytotoxicity against human HeLa cells assessed as reduction in cell viability measured after 48 hrs by CCK8 assay; type: functional, cell-based
HepG2 = test: Cytotoxicity against human HepG2 cells assessed as reduction in cell viability measured after 48 hrs by CCK8 assay; type: functional, cell-based; conditions: HepG2, 48 h
Bacillus cereus = test: Antimicrobial activity against Bacillus cereus assessed as reduction in bacterial growth at 100 ug/ml measured after 48 hrs by double dilution method; type: functional, organism-based; conditions: dose 100.0 µg/ml
Staphylococcus aureus = test: Antimicrobial activity against Staphylococcus aureus assessed as reduction in bacterial growth at 100 ug/ml measured after 48 hrs by double dilution method; type: functional, organism-based; conditions: dose 100.0 µg/ml
Alternaria alternata = test: Antifungal activity against Alternaria alternata assessed as inhibition of fungal growth measured after 72 hrs by double dilution method; type: functional, organism-based
Fusarium oxysporum = test: Antifungal activity against Fusarium oxysporum assessed as inhibition of fungal growth measured after 72 hrs by double dilution method; type: functional
Phytophthora capsici = test: Antifungal activity against Phytophthora capsici assessed as inhibition of fungal growth measured after 72 hrs by double dilution method; type: functional, organism-based
Pseudomonas sp. [3] = test: Antimicrobial activity against Pseudomonas sp. assessed as reduction in bacterial growth measured after 48 hrs by double dilution method; type: functional

Structure (SMILES) | Activity [1] | Activity (Ralstonia solanacearum) | Activity (Bacillus subtilis) | Activity (Escherichia coli) | Activity (Pseudomonas sp. [2]) | IC50 (HeLa) | IC50 (HepG2) | Activity (Bacillus cereus) | Activity (Staphylococcus aureus) | Activity (Alternaria alternata) | Activity (Fusarium oxysporum) | Activity (Phytophthora capsici) | MIC (Fusarium oxysporum) | MIC (Pseudomonas sp. [3]) | MIC (Bacillus subtilis; dose 100 µg/ml)
O=C(O)c1ccc(O)c2c1Cc1cccn1-2 | inactive | inactive | inactive | inactive | inactive | > 20 µM | > 20 µM | inactive | inactive | inactive | inactive | inactive |  |  | 
C[C@@H](O)[C@@H]1OC(=O)[C@@H]2[C@H]3c4c[nH]c5cccc(c45)C[C@H]3C(C)(C)N2C1=O | inactive | inactive | inactive | inactive | inactive | > 20 µM | > 20 µM | inactive | inactive | inactive |  | inactive | 50 µg/mL (≈ 141 µM) |  | 
CS[C@@H]1C(=O)N2[C@@H]3Nc4ccccc4[C@]3(c3c[nH]c4ccccc34)[C@@H](O)[C@@]2(SC)C(=O)N1C | inactive | inactive | inactive | inactive | inactive | > 20 µM | > 20 µM | inactive | inactive |  |  |  |  |  | 
CS[C@@]1(Cc2c[nH]c3ccccc23)NC(=O)[C@@](SC)([C@@H](C)O)NC1=O | inactive | inactive | inactive | inactive | inactive | > 20 µM | > 20 µM | inactive | inactive |  |  |  |  |  | 
C[C@@H](O)[C@@H]1NC(=O)[C@H](Cc2c[nH]c3ccccc23)NC1=O | inactive | inactive | inactive | inactive | inactive | > 20 µM | > 20 µM | inactive | inactive | inactive | inactive | inactive |  | 50 µg/mL (≈ 174 µM) | 
C[C@@H](O)[C@]12SS[C@@]3(C(=O)N1C)[C@H](O)C1([C@]45c6ccccc6N[C@H]4N4C(=O)[C@@]6([C@@H](C)O)SS[C@@]4(C(=O)N6C)[C@@H]5O)c4ccccc4N[C@H]1N3C2=O (stereo not given in full) | inactive | inactive | inactive | inactive | inactive | 0.12 µM | 0.37 µM | inactive | inactive |  |  |  |  |  | 
CS[C@@]1(Cc2c[nH]c3ccccc23)NC(=O)[C@H]([C@@H](C)O)NC1=O | inactive | inactive | inactive | inactive | inactive | > 20 µM | > 20 µM | inactive | inactive |  |  |  |  |  | 
C[C@@H](O)[C@]12SS[C@@]3(C(=O)N1C)[C@H](O)[C@@]1(c4c[nH]c5ccccc45)c4ccccc4N[C@H]1N3C2=O | inactive | inactive | inactive | inactive | inactive | 0.42 µM | 0.6 µM | inactive | inactive |  |  |  |  |  | 
CN1C(=O)C(=O)N2C(=C[C@@]3(c4c[nH]c5ccccc45)c4ccccc4N[C@@H]23)C1=O | inactive | inactive | inactive | inactive | inactive | > 20 µM | > 20 µM | inactive | inactive |  |  |  |  |  | 
C[C@H](O)[C@H]1NC(=O)[C@@H](Cc2c[nH]c3ccccc23)NC1=O |  |  |  |  |  |  |  |  |  | inactive | inactive | inactive |  |  | 25 µg/mL (≈ 87 µM)
